Reference: US20210275545A1, “METHOD OF TREATING CANCER PREFERABLY CHARACTERIZED BY EXPRESSION OF A FUSION PROTEIN COMPRISING A MEMBER OF THE E-TWENTY-SIX FAMILY BY ADMINISTERING AN AGENT THAT INHIBITS THE SYNTHESIS AND/OR ACTIVITY OF CORTISOL” (Yeda Research and Development Co. Ltd., priority 2018, published 2021)

Assays:
[1] = tested on: A673 cells; test: Apoptosis assay (annexinV/7-AAD); type: cell-based; details: RU486 10 or 20 μM, 48 hours
Description: FIGS. 12A-F: Inhibition of GR activity decreases growth and survival of Ewing's sarcoma cells. […] (B) Increasing concentrations of […], a non-steroidal antagonist of GR [54], were incubated with A673 cells as in A and the MTT assay was performed in triplicates. *, p<0.05. […] Note that the abundance of the endogenous form of FLI1 is much weaker than that of EWS-FLI1. […] MTT assays were performed after 48 hours of treatment. The assay was repeated twice in quadruplets. **, p<0.01, ***, p<0.001. (E) A673 cells were seeded in 100-mm dishes. […] Shown are results of an apoptosis assay performed using an annexinV/7-AAD kit (BioLegend, Inc.). Quantification of the fractions of early and late apoptotic cells is shown in bar plots. The experiment was repeated twice. (F) The indicated ES cells were sparsely seeded in 6-well plates. […] Ten days later, cells were fixed and stained with crystal violet to visualize emerging colonies. Photos are shown along with bar plots showing the quantification of colonies in 5 non-overlapping microscope fields. The experiment was repeated twice. *, p≤0.05; **, p≤0.001. Apoptosis assays: Assays were performed using the FITC Annexin V Apoptosis Detection Kit with 7-AAD (from BioLegend) and analyzed using a BD FACSAria Fusion instrument controlled by BD FACS Diva software v8.0.1 (BD Biosciences).

[2] = tested on: TC-71 cells; test: Bone-to-lung metastasis of luciferase-labeled TC-71 cells injected into the tibia; type: in vivo, SCID mice; details: TC-71 in tibia; 1 mg/kg intraperitoneally
Description: FIGS. 6A-E. A GR antagonist and a cortisol-lowering drug impede growth of human xenograft models of Ewing's sarcoma. (A) RD-ES cells (2×10^6) were implanted subcutaneously in the right flank of SCID mice. […] The means of tumor volumes (+SEM) are shown. […] (B) Shown are representative images of immunofluorescent staining for KI67 in paraffin-embedded sections of tumors from A, using an antibody against KI67. Scale bars, 100 μm. Also shown is the scatter plot depicting quantification of KI67 staining in randomly selected 4 fields of a representative tumor from each group. […] (C and D) A673 cells (2×10^6) were implanted in female SCID mice. […] Each group was daily treated with either vehicle, or Metyrapone (25 mg/kg) and tumorigenic growth was monitored. Actual tumor volumes (±SEM) are presented. Also shown are tumors harvested from each group of animals; **p<0.001. (E) TC-71 cells (10^6) engineered to stably express luciferase were injected into the tibia of female SCID mice (5 weeks old; 7 mice per group). […] The control group was similarly treated with the solvent (0.1% tween 80). When the primary tumor reached 10% of body weight, the lungs were excised and examined for metastasis using luciferase bioluminescence imaging. […] Luminescence was quantified and presented in a bar graph. […] Tumor growth was monitored once every 3 days using a caliper. […]

[3] = molecular target: GR and FLI1 (Homo sapiens, UniProt P04150); details: HEK-293T cells, treated for 60 minutes
Sequence of GR and FLI1 (P04150 whole entry, the tested form may be a part): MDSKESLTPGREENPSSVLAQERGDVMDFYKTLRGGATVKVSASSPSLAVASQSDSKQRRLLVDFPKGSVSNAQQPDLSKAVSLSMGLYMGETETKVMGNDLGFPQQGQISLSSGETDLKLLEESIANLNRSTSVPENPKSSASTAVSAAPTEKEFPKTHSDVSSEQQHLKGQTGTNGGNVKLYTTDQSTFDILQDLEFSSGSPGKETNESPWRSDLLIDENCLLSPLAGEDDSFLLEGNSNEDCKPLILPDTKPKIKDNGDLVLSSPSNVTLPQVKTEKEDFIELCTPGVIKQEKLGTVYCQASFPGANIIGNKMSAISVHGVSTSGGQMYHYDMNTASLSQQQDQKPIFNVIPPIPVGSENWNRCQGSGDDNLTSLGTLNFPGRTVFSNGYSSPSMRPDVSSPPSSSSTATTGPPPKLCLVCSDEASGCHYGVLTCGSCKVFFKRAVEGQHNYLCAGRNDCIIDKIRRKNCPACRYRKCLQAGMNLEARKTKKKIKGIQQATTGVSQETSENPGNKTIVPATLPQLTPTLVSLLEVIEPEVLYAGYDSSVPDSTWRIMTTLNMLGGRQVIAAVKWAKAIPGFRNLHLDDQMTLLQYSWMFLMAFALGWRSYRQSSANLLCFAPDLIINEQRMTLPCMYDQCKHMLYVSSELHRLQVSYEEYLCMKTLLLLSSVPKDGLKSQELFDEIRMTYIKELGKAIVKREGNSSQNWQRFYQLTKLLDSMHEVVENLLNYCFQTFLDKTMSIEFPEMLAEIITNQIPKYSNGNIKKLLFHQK
Description: (A) The scheme presents the full length Gaussia luciferase protein, along with either the amino-terminal segment (Gluc1), which was fused to an ETS family transcription factor, or the carboxyl terminal segment (Gluc2), which was fused to GR. Amino acid numbers are indicated. cDNAs encoding most members of the ETS family (16 members altogether) were cloned downstream to Gluc1. […] (B) HEK-293T cells (6×10^3) were seeded in 96-well plates. On the next day, cells were transfected with combinations of the Gluc1 plasmid, encoding a fused ETS family member, and the Gluc2 plasmid encoding a fused full-length GR. […] Cells were then lysed and luminescence was determined in biological triplicates. […] (D and E) HEK-293T cells were seeded in 100-mm dishes. Once they reached sub-maximal density (70%), cells were starved overnight for serum factors. […] Cell extracts were then processed for co-immunoprecipitation assays, in which the endogenous FLI1 or ERG protein was immunoprecipitated using a specific antibody, and immunoblotting was performed using an antibody against GR. EB, empty beads; C, solvent control. Images shown are representative of three biological replicates.
Proximity ligation assay (PLA), extraction of cells, co-immunoprecipitation and cell migration/invasion assays: These assays were performed exactly as recently reported.

[4] = tested on: RD-ES xenograft; test: RD-ES xenograft tumor growth and KI67 staining; type: in vivo, SCID mice; details: 1 mg/kg daily
Description: FIGS. 6A-E. A GR antagonist and a cortisol-lowering drug impede growth of human xenograft models of Ewing's sarcoma. (A) RD-ES cells (2×10^6) were implanted subcutaneously in the right flank of SCID mice. Once tumors reached an approximate size of 150 mm^3, animals were randomized into three groups (n=10). […] The means of tumor volumes (+SEM) are shown. […] (B) Shown are representative images of immunofluorescent staining for KI67 in paraffin-embedded sections of tumors from A, using an antibody against KI67. Scale bars, 100 μm. Also shown is the scatter plot depicting quantification of KI67 staining in randomly selected 4 fields of a representative tumor from each group. […] (C and D) A673 cells (2×10^6) were implanted in female SCID mice. Once tumors reached the size of 150 mm^3, animals were randomized into two groups (n=9). Each group was daily treated with either vehicle, or Metyrapone (25 mg/kg) and tumorigenic growth was monitored. Actual tumor volumes (±SEM) are presented. Also shown are tumors harvested from each group of animals; **p<0.001. […] Luminescence was quantified and presented in a bar graph.
ES animal model studies: All animal experiments were approved by the Weizmann Institute's Animal Care and Use Committee. […] Tumor growth was monitored once every 3 days using a caliper. […]

[5] = tested on: glucocorticoid response element (GRE); details: DEX and RU486 each at 100 nM, 24 hours
Description: HEK-293T cells (1.2×10^4) were seeded in 48-well plates. […] In addition, cells were co-transfected with increasing amounts of a GR expression vector (A), a FLI1-encoding vector (B) or with a combination of both a FLI1 vector and a vector encoding GR, either wild type (C) or a mutant receptor (GRdim−, panel D). Luciferase activity was determined, in biological triplicates, 48 hours later and presented in bar plots. Cells that were pre-transfected with the reporter plasmid were used for normalization. *, p≤0.05; ***, p≤0.001. […] This was followed by cell lysis and determination of luciferase activity in biological triplicates.
Luciferase-reporter assays: Cells were co-transfected with a luciferase plasmid containing the consensus glucocorticoid response element (GRE) along with pGL3-Control (Promega, Madison, Wis.). Luciferase activity was determined using the dual-luciferase reporter assay system (Promega). Firefly luciferase luminescence values were normalized to Renilla luminescence.

SMILES: CC#C[C@]1(O)CC[C@H]2[C@@H]3CCC4=CC(=O)CCC4=C3[C@@H](c3ccc(N(C)C)cc3)C[C@@]21C [RU486, Mifepristone]
- early apoptosis (fraction of cells) ([1]; DEX 1 μM): increased
- late apoptosis (fraction of cells) [1]: increased
- bone-to-lung metastasis (lung luminescence) [2]: lessened lung nodules
- co-immunoprecipitation of GR and FLI1 [3]: strongly reduced
- tumor growth [4]: significantly slower tumor growth
- KI67 staining of tumor sections (proliferation) ([4]; relative to control group): slower proliferation rates
- effect of co-treatment on DEX-induced GRE activity [5]: inhibitory
